From the NIST ThermoML archive (doi:10.1021/je060200b)

Assay: xn = mol fraction of the nth substance listed
Settings: 101 kPa, Liquid; for speed of sound: Pulse-echo method; for mass density: Vibrating tube method

BrCCCCCBr [1,5-dibromopentane] + CCCCCCC
Settings	mass density [kg/m3]	speed of sound [m/s]
292.38 K, x1 = 1	–	1149.5
292.52 K, x1 = 0.1006	779.97	–
292.52 K, x1 = 0.1994	875.92	–
292.52 K, x1 = 0.3003	975.53	–
292.52 K, x1 = 0.4008	1075.8	–
292.52 K, x1 = 0.5004	1176.68	–
292.52 K, x1 = 0.5999	1278.62	–
292.52 K, x1 = 0.6995	1381.6	–
292.52 K, x1 = 0.8002	1487.16	–
292.52 K, x1 = 0.899	1591.59	–
292.52 K, x1 = 1	1699.54	–
292.56 K, x1 = 0.4	–	1103.5
292.59 K, x1 = 0.5001	–	1104.2
292.65 K, x1 = 0.2	–	1116.5
292.68 K, x1 = 0.3001	–	1107.2
292.73 K, x1 = 0.7999	–	1126.3
292.75 K, x1 = 0.8998	–	1137.3
292.76 K, x1 = 0.6	–	1108.4
292.8 K, x1 = 0.6997	–	1116.2
292.83 K, x1 = 0.1	–	1131.1
298.05 K, x1 = 0.1006	775.18	–
298.05 K, x1 = 0.1994	870.87	–
298.05 K, x1 = 0.3003	969.84	–
298.05 K, x1 = 0.4008	1070.23	–
298.05 K, x1 = 0.5004	1170.91	–
298.05 K, x1 = 0.5999	1272.47	–
298.05 K, x1 = 0.6995	1375.26	–
298.05 K, x1 = 0.8002	1480.47	–
298.05 K, x1 = 0.899	1584.66	–
298.05 K, x1 = 1	1691.87	–
298.37 K, x1 = 1	–	1133
298.59 K, x1 = 0.5001	–	1084.5
298.62 K, x1 = 0.4	–	1082.8
298.63 K, x1 = 0.2	–	1093.8
298.67 K, x1 = 0.3001	–	1085.7
298.73 K, x1 = 0.8998	–	1120.2
298.76 K, x1 = 0.7999	–	1108.6
298.77 K, x1 = 0.6	–	1089.6
298.8 K, x1 = 0.6997	–	1098.1
298.83 K, x1 = 0.1	–	1106.8
303.06 K, x1 = 0.1006	770.79	–
303.06 K, x1 = 0.1994	866	–
303.06 K, x1 = 0.3003	964.71	–
303.06 K, x1 = 0.4008	1064.63	–
303.06 K, x1 = 0.5004	1165.02	–
303.06 K, x1 = 0.5999	1266.37	–
303.06 K, x1 = 0.6995	1368.9	–
303.06 K, x1 = 0.8002	1474.36	–
303.06 K, x1 = 0.899	1578.04	–
303.06 K, x1 = 1	1684.89	–
303.39 K, x1 = 1	–	1119.3
303.59 K, x1 = 0.2	–	1075.1
303.63 K, x1 = 0.3001	–	1068
303.64 K, x1 = 0.4	–	1065.8
303.64 K, x1 = 0.5001	–	1068.3
303.67 K, x1 = 0.8998	–	1106.3
303.71 K, x1 = 0.7999	–	1094.2
303.72 K, x1 = 0.6	–	1074.2
303.78 K, x1 = 0.6997	–	1083.1
303.86 K, x1 = 0.1	–	1086.5
308.08 K, x1 = 0.1006	766.31	–
308.08 K, x1 = 0.1994	861.23	–
308.08 K, x1 = 0.3003	959.36	–
308.08 K, x1 = 0.4008	1058.93	–
308.08 K, x1 = 0.5004	1159.11	–
308.08 K, x1 = 0.5999	1260.5	–
308.08 K, x1 = 0.6995	1362.98	–
308.08 K, x1 = 0.8002	1467.91	–
308.08 K, x1 = 0.899	1571.77	–
308.08 K, x1 = 1	1678.03	–
308.38 K, x1 = 1	–	1105.8
308.55 K, x1 = 0.2	–	1056.4
308.58 K, x1 = 0.4	–	1049.1
308.58 K, x1 = 0.5001	–	1052.4
308.67 K, x1 = 0.3001	–	1050
308.67 K, x1 = 0.8998	–	1092.3
308.69 K, x1 = 0.6	–	1058.9
308.7 K, x1 = 0.7999	–	1079.8
308.82 K, x1 = 0.6997	–	1068.1
308.84 K, x1 = 0.1	–	1066.7
314.36 K, x1 = 1	–	1089.7
314.52 K, x1 = 0.5001	–	1033.4
314.54 K, x1 = 0.3001	–	1029.3
314.61 K, x1 = 0.2	–	1033.8
314.66 K, x1 = 0.1006	760.22	–
314.66 K, x1 = 0.1994	854.58	–
314.66 K, x1 = 0.3003	952.58	–
314.66 K, x1 = 0.4008	1052	–
314.66 K, x1 = 0.5004	1151.72	–
314.66 K, x1 = 0.5999	1252.55	–
314.66 K, x1 = 0.6995	1354.65	–
314.66 K, x1 = 0.8002	1459.75	–
314.66 K, x1 = 0.899	1562.81	–
314.66 K, x1 = 1	1668.75	–
314.67 K, x1 = 0.4	–	1028.8
314.68 K, x1 = 0.7999	–	1062.8
314.7 K, x1 = 0.8998	–	1075.6
314.75 K, x1 = 0.6	–	1040.2
314.82 K, x1 = 0.6997	–	1050.3
314.83 K, x1 = 0.1	–	1042.8
